# Measured values reported in patent US8772540B2, “Thermal responsive molecule” (Kyushu University, National University Corporation, priority 2009, dated 2014).
# Tests used:
# [1] = Fluorescent spectrum: incorporation of hydrophobic environmental probe ANS-Na into hydrogel; format: physicochemical; conditions: 10 μM ANS-Na, 1 mM Eg3C8U aqueous solution
# Experimental: Using ANS-Na (8-anilino-1-naphthalene sulfonic acid sodium salt) known as a hydrophobic environmental probe, the hydrogel was tested for incorporation of a fluorescent substance thereinto.
# [2] = Confirmation of formation of hydrogel (gelling when heated in water); format: physicochemical
# Experimental: Two ml of deionized water was added to 1 mg of the compound (8), which was dissolved by ultrasonication with cooling in an ice bath. With gradually heating up to room temperature, this was statically left as such for 30 minutes.
compound,measurement,setting,value
"COCCOCCOCCOCCCCCCNC(=O)Nc1cc(NC(=O)NCCCCCCOCCOCCOCCOC)cc(NC(=O)NCCCCCCOCCOCCOCCOC)c1 [compound (8), 1,1′,1″-(benzene-1,3,5-triyl)tris{3-(2,5,8,11-tetraoxaheptadecan-17-yl)urea}]",fluorescence of ANS-Na in hydrogel versus aqueous solution,[1],fluorescent intensity increased in the hydrogel and was shifted to the short wavelength side
same,hydrogel formation,"[2]; 1 mg in 2 ml deionized water, transparent solution at 0° C., heated up to room temperature, left 30 minutes",formed a hydrogel
same,lowermost gelling concentration,"[2]; in water, gels when heated",0.05 wt. %
